Measured values taken from paper PMC11571109, “Covalent Inhibitors of S100A4 Block the Formation of a Pro-Metastasis Non-Muscle Myosin 2A Complex” (Journal of Medicinal Chemistry, 2024).
Where “and” joins values, the source holds several entries; their conditions need not be identical. Equal entries are not always repeated. Where two headings read alike, the source gives them in different places.

Columns and labels:
S100A4 = S100A4 (Homo sapiens, UniProt P26447); experiment: Protein labeling detection by mass spectrometry, S100A4; details: 10 μM S100A4, 100 μM inhibitor, 1 h
Procedure: To confirm its mechanism of inhibition, we performed a protein labeling assay. S100A4 protein was incubated in the presence of BAY11–7082 and analyzed by mass spectrometry (Figure 1C).
The compounds and their activity on S100A4-NMII and S100A11-AnII are shown in Figure 2A,B. To investigate their covalent activity, we then performed a protein labeling assay by incubating S100A4 in the presence of the inhibitors in parallel.
The mixture was incubated for 1 h at room temperature in the dark and analyzed by mass spectrometry using a 1290 Infinity coupled to a 6530 Accurate-Mass Q-TOF LC/MS (Agilent Technologies). Results were analyzed using the Qualitative Analysis MassHunter Acquisition Data and the Bioconfirm software.

S100A11-AnII = biological target: T1, S100A11-AnII (Homo sapiens, UniProt P31949); experiment: HTRF (TR-FRET) peptide displacement S100A11-AnII; type: binding; details: supplementary CSV
T1 construct: made in house; host or cells: E. coli Rosetta (DE3); peptide from LifeTein
T1 sequence (P31949 1-105): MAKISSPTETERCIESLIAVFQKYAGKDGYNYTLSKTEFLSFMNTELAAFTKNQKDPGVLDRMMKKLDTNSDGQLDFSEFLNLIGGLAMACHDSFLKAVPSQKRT
Procedure: Table S4: Compound IDs and SMILES … S30 […]
(§1) Peptide displacement assay development
(§2) addition of an inhibitor.
(§3) Assay was done in 384-well
(§4) After 2 hours of incubation at
(§5) concentration range to avoid the saturation of the signal.

S100A4-NMII [1] = biological target: T2, S100A4-NMII (Homo sapiens, UniProt P26447); experiment: HTRF (TR-FRET) peptide displacement S100A4-NMII (MPN peptide); type: binding; design: made in house; host or cells: E. coli Rosetta (DE3); peptide from LifeTein; details: supplementary CSV; read-out: S100A4 IC50 HTRF assay
Procedure: as §1, §2, §3, §4, §5

HeLa cells = experiment: Cell migration (wound healing) assay, HeLa; type: cell-based; details: 8 μM, 36 h
Procedure: We next investigated whether phenylproline derivatives would inhibit S100A4 activity by affecting cell migration. HeLa and A549 cells were challenged for a cell migration assay in the presence of phenylproline derivatives. A monolayer of cells was scratched and treated with various concentrations of inhibitors for 36 h. Cell migration was monitored automatically using the Incucyte live-cell imager by imaging cells every 2 h.
The day before the experiment, cells were seeded in a black, clear-bottom, collagen-coated 96-well plate in complete high-glucose DMEM to reach nearly full confluency the next day. On the day of the experiment, a wound in the cell layer was made, and the media were replaced with media containing phenylproline derivatives. Cells were incubated for 36 h in an Incucyte cell-imager (Sartorius, Germany), allowing for automated cell imaging every 2 h. The analysis was done by measuring the wound area using ImageJ and plugging the wound healing tool.

HeLa = experiment: Cell proliferation assay (CellTiter-Glo), HeLa; type: cell-based; details: Homo sapiens, 48 h, supplementary CSV
Procedure: (§6) To further characterize the potency of the phenylproline derivatives on cancer cells, their effect on proliferation has been measured on HeLa and A549 cell lines, which are known to express S100A4.[44],[45] A cell proliferation assay was performed by cultivating cells for 48 h in complete media with various concentrations of inhibitors, up to 30 μM. At the end of the treatment, luminescence was measured after the addition of the CellTiter-Glo reagent (Figure 7A).
(§7) The day before, cells were seeded in a white, cell-culture treated 384-well plates in complete high-glucose DMEM to reach a confluency of 25% on the day of the experiment. The next day, the medium was replaced by complete, high-glucose, phenol-red-free medium, and cells were incubated for 48 h in the presence of an inhibitor or DMSO as a control. Aliquots of the supernatant were harvested, diluted 100 times in 200 mM Tris-HCl, pH 7.3, 10% glycerol, and 1% BSA buffer, and used for cyctotoxicity measurement by using the LDH-Glo cytotoxicity assay kit (Promega). In parallel, the CellTiter-Glo (Promega) reagent was added to the cells to measure cell proliferation. Both experiments were done according to the manufacturer’s recommendations, and the luminescence was quantified using the FSX plate reader (Pherastar).

A549 = experiment: Cell proliferation assay (CellTiter-Glo), A549; type: cell-based; details: Homo sapiens, 48 h, supplementary CSV
Procedure: as §6, §7

S100A4-NMII [2] = biological target: T2, S100A4-NMII; experiment: cell-based
Description: First, we performed IC50 measurements of protein–protein interaction in the presence of inhibitors using NanoBret technology. Briefly, S100A4-HaloTag and NMII-NanoLuc were expressed in 293HEK cells to allow signal detection from donor (NanoLuc) and acceptor (HaLoTag) proximity upon S100A4-NMII interaction.
Assay development was done according to the NanoBRet-NanoGlo detection system manufacturer’s recommendations (Promega) by testing each combination of N- and C-termini of HaloTag and NanoLuc fusion constructs. 293HEK cells were seeded on 6-well plates in complete DMEM media and transfected 6 h later with S100A4-NanoLuc (1.8 μg) and NMII-HaloTag (0.2 μg) constructs using the JetPrime transfection reagent (Polyplus Transfection, Strasbourg, France). After an overnight incubation, cells were resuspended in phenol-red-free, 4% serum media in the presence of the HaloTag NanoBret 618 ligand or DMSO for control. […] NanoBret NanoGlo substrates were added to cells prior to reading the plate with the Pherastar FSX plate reader. The raw Nanobret ratio was calculated by dividing the acceptor emission value (618 nm) by the donor emission value (460 nm) for each sample. The mean NanoBret data were calculated by subtracting the background ratio (no acceptor control) from the sample ratio.

[3] = Cytotoxicity assay (LDH-Glo), A549; type: cell-based; details: human, A549 cells, supplementary CSV, read-out: A549 Cell toxicity IC50
Procedure: as §6, §7

[4] = GSH reactivity assay (LCMS); type: physicochemical; details: 1 mM glutathione (GSH) in HEPES buffer, pH 7.5; read-out: GSH t1/2 (converted)
Procedure: GSH is the most abundant low molecular weight thiol compound in the cell. It protects cells from oxidative damage and the toxicity of xenobiotic electrophiles and maintains redox homeostasis.[43] We speculated that a robust and specific reaction of inhibitors would not be drastically affected by competitive cysteines in the reaction.
50 μM of each compound was incubated at room temperature with 1 mM GSH in 50 mM HEPES, 20 mM NaCl, pH 7.5, and 1.3% DMSO. At each time point, an aliquot was taken and analyzed by LCMS. The percentage of the compound remaining was determined by comparing the area of the peaks of the compound and the GSH adduct. The natural logarithm of the results was fitted to a linear regression, and t1/2 was calculated as t1/2 = ln(2)/–slope.

[5] = Aqueous solubility in PBS (pH 7.4); type: physicochemical; details: aqueous buffer; PBS pH 7.4; read-out: aq. solubility
Description: (§8) Selected compounds were screened for aqueous solubility in PBS (pH 7.4), metabolic stability in mouse liver microsomes (MLM) as a measure of clearance, Log D, and permeability. ADME studies reported in this work were independently performed by WuXi AppTec (Shanghai, China). Raw data are provided upon request.

Log D = type: physicochemical
Description: as §8

[6] = Cytotoxicity assay (LDH-Glo), HeLa; type: cell-based; details: human, HeLa cells, supplementary CSV, read-out: HeLa Cell toxicity IC50
Procedure: as §6, §7

[7] = test system: P-glycoprotein (P-gp, MDR1); experiment: Cell permeability MDR1-MDCK II; type: in vitro ADME; details: dog
Description: as §8

[8] = Metabolic stability in mouse liver microsomes (MLM); type: in vitro ADME; details: mouse liver microsomes
Description: as §8

T2 sequence (P26447 whole entry): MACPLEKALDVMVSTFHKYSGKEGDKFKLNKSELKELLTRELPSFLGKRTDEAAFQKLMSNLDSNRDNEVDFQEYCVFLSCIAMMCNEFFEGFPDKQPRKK
Sequence of S100A4 (P26447 whole entry): as above

SMILES | S100A4 covalent modification pattern (in words) (S100A4) | IC50 (S100A11-AnII) [µM] | IC50 (S100A4-NMII [1]) [µM] | other results
CC(C)c1c(-c2ccc(OCCNC(=O)/C=C/C(=O)c3ccccc3)cc2)[nH]c2c(C#N)cnn2c1=O [2a] | multiple adduct additions | 3.67 | 0.43 | –
CC(C)c1c(-c2cnn(C3CCN(C(=O)/C=C/C(=O)c4ccccc4)CC3)c2)[nH]c2c(C#N)cnn2c1=O [2b] | multiple adduct additions | 1.35 | 0.48 | –
CC(C)c1c(-c2cnn(CCNC(=O)/C=C/C(=O)c3ccccc3)c2)[nH]c2c(C#N)cnn2c1=O [2c] | – | 5.6 | 1.79 | –
O=C(CCl)Nc1ccc2c(c1)CN(CCc1cnn(-c3nccc4c(=O)[nH]cnc34)c1)CC2 [2d] | – | > 30 | 9.24 | –
O=C(CCl)Nc1cccc(CN(CCc2cnn(-c3nccc4c(=O)[nH]cnc34)c2)C2CCCC2)c1 [3a] | – | > 30 | 2.4 | –
C=CC(=O)Nc1cccc(CN(CCc2cnn(-c3nccc4c(=O)[nH]cnc34)c2)C2CCCC2)c1 [3b] | – | > 30 | 9.32 | –
C#CC(=O)N1CCN(CCc2cnn(-c3nccc4c(=O)[nH]cnc34)c2)CC1 [4a] | – | 8.15 | 1.73 | –
O=C(Nc1cccc(Cl)c1)[C@H]1C[C@H](c2ccccc2)CN1C(=O)CCl [5a] | single shifts | > 30 | 4.22 | wound healing (cell migration) (HeLa cells): drastically reduced wound healing; IC50 (HeLa): 3.1 µM; IC50 (A549): 25 µM; IC50 (S100A4-NMII [2]): 20 µM; IC50 at 48 h [3]: 27.1 µM; half-life at 50 μM [4]: 9.4 h; solubility [5]: 23.9 µg/mL and 63.4 µM; logD (Log D): 3.95; IC50 at 48 h [6]: 55.8 µM; Papp ([7]; MDCK-MDR1, A to B, read-out: MDR1-MDCK II, AB Papp): 0.8 ×10⁻⁶ cm/s; Papp ([7]; MDCK-MDR1, B to A, read-out: MDR1-MDCK II, BA Papp): < 26.4 ×10⁻⁶ cm/s; MLM, Cli [8]: 332 μL/min/mg protein; half-life ([8]; read-out: MLM, T1/2): 4 min
